How the values were obtained:
Type in all cases: cell-based
Set-up in all cases: key: 5: five indicated growth equal to the water control; 1: a rating of one indicated the complete absence of growth; Index values two (2) through four (4) represent intermediate levels of sporulation and growth; 3: Index values two (2) through four (4) represent intermediate levels of sporulation and growth; Index values two (2) through four (4) represent intermediate levels of sporulation and growth; zero (0) indicates a failed or unnecessary test
Conditions in all cases: chemical control, all independent replicated tests
[1] = system: Pseudomonas syringae; experiment: agar overlay plant pathogen growth assay, PSTO
Description: (§1) The novel Streptomyces galbus strain was grown for testing against plant pathogens in the following manner. The isolated microbe was initially fermented in three distinct actinomycete cultivation media. Media 38 was composed of 2 g/L tomato paste, 2 g/L oat flour, and 1.0 g/L sea salts. Media 31 was composed of 45 g/L oat flour, 2 g/L yeast extract, 6 g/L KH2PO4, and 4.8 g/L Na2HPO4, pH 7. Media 6 was composed of 20 g/L soluble starch, 10 g/L dextrose, 5 g/L yeast extract, 5 g/L N-Z amineA, and 1 g/L CaCO3.
(§2) The microbe was picked from tomato-oat flour agar (2 g/L tomato paste, 2 g/L oat flour, and 20 g/L agar) and introduced to 50 ml conical tubes containing 12 ml of sterile fermentation media capped with a foam plug. The inoculated tubes were incubated at 27±3° C., in an orbital shaker for six days. […]
(§3) The following pathogen/chemical pairs were tested: Alternaria brassisicola (ABRA Benomyl), Botrytris cinerea (BOTC/Benomyl), Monilinuafructicola (MONF/Benomyl), Phytophthora capsici (PCAP/Metalaxyl), Pseudomonas syringae (PSTO/Gentamycin), and Colletotrichum coccoides (COLC/Chlorothalonil). […] The chemical controls scored index ratings of one (1) in all of the independent replicated tests; and media blanks had ratings of five (5).

[2] = system: Monilinuafructicola; experiment: agar overlay plant pathogen growth assay, MONF
Description: as §1, §2, §3

[3] = system: Botrytris cinerea; experiment: agar overlay plant pathogen growth assay, BOTC
Description: as §1, §2, §3

[4] = system: Alternaria brassisicola; experiment: agar overlay plant pathogen growth assay, ABRA
Description: as §1, §2, §3

[5] = system: Phytophthora capsici; experiment: agar overlay plant pathogen growth assay, PCAP
Description: as §1, §2, §3

[6] = system: Colletotrichum coccoides; experiment: agar overlay plant pathogen growth assay, COLC
Description: as §1, §2, §3

## Gentamycin
[1]
  PSTO pathogen growth index rating: 1

## CCCCNC(=O)n1c(NC(=O)OC)nc2ccccc21 [Benomyl]
[2]
  MONF pathogen growth index rating: 1
[3]
  BOTC pathogen growth index rating: 1
[4]
  ABRA pathogen growth index rating: 1

## COCC(=O)N(c1c(C)cccc1C)C(C)C(=O)OC (stereo not drawn) [Metalaxyl]
[5]
  PCAP pathogen growth index rating: 1

## N#Cc1c(Cl)c(Cl)c(Cl)c(C#N)c1Cl [Chlorothalonil]
[6]
  COLC pathogen growth index rating: 1

From patent US6682925B1, “Streptomyces strain with insecticidal activity and method of using as an insecticide” (priority 2000, dated 2004)
